In general, AC50 refers to the concentration at which the activity in the assay is half-maximal.

The source of these data is US20110152166A1, “METHOD OF MODULATION OF PROTEIN PHOSPHORYLATION-DEPENDENT CONFORMATIONAL TRANSITIONS WITH LOW MOLECULAR WEIGHT COMPOUNDS” (priority 2006, published 2011).

Experiment in all cases: PDK1 activity assay with T308tide
Assay type in all cases: biochemical

For one test, the target named is T1, GST-PDK1 [Val127Thr] (Homo sapiens, UniProt O15530, V127T).
T1 construct: different protein constructs, comprising the full length protein or the catalytic domain alone; made in house; host or cells: HEK293 cells (pEBG-2T-PDK1 mutant)
T1 sequence (O15530 1-556 V127T): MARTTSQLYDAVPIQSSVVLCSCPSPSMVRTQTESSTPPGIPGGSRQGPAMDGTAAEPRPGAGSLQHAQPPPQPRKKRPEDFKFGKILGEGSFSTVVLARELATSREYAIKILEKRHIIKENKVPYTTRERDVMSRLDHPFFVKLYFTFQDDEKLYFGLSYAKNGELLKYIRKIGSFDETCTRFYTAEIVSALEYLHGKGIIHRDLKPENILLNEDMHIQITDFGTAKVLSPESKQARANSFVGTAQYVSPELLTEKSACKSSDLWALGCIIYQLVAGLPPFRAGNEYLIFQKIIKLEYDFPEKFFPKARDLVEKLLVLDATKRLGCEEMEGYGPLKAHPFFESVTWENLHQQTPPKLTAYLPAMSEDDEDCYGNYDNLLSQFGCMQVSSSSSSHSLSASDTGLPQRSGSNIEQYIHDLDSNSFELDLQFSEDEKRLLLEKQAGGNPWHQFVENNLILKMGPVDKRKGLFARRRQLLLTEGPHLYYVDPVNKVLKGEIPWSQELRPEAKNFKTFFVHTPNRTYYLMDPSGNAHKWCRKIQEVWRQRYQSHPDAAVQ
As to conditions: for AC50 / Max. activity: GST-PDK1 [Val127Thr]; for activation of PDK1 Val127Thr mutant: Val127 replaced by Thr.

A further test deals with T2, GST-PDK1 [Ser135Ala] (Homo sapiens, UniProt O15530, S135A).
T2 construct: different protein constructs, comprising the full length protein or the catalytic domain alone; made in house; host or cells: HEK293 cells (pEBG-2T-PDK1 mutant)
T2 sequence (O15530 1-556 S135A): T1 sequence (O15530 1-556 V127T) with T127V, S135A

Another test has as its target T3, PDK1 50-360 (Homo sapiens, UniProt O15530).
T3 construct: the catalytic domain of PDK1 (50-359) produced in SF9 insect cells; His-tag (pFastbac-HT, TEV site) (N, cleaved yes); made in house; host or cells: Sf9 insect cells (baculovirus, pFastbac-HT)
T3 sequence (O15530 50-359): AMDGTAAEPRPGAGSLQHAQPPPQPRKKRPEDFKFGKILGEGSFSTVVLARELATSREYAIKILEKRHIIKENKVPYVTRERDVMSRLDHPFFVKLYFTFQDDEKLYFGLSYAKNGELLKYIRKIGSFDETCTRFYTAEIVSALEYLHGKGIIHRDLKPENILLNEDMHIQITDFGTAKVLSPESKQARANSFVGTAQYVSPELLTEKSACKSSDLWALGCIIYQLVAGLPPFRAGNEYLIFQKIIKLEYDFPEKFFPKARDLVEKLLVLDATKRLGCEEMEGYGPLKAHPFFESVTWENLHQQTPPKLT
As to conditions: for AC50 / Max. activity: PDK1 50-360; for activation of PDK1 CD wt (in words): catalytic domain 50-360 wild type.

Positions count from the first letter of the chain named. Ends that are not written are not given here.

Regarding `O=C(O)CSC(CC(=O)c1ccc(Cl)cc1)c1ccccc1` (stereo not shown) [Compound 1], at GST-PDK1 [Val127Thr], the activity was half-maximal at 104 ± 58 µM (AC50), the Max. activity was determined as 1.69 ± 0.2 U/mg and the “activation of PDK1 Val127Thr mutant” value was found to be 240%. In addition, on GST-PDK1 [Ser135Ala], the AC50 was found to be 109 ± 33 µM and the Max. activity came out at 2.82 ± 0.4 U/mg. In addition, at PDK1 50-360, the AC50 came to 38 ± 8 µM, the Max. activity was 3.46 ± 0.19 U/mg and the “activation of PDK1 CD wt (in words)” value is “activated”.
With “REPRILSEEEQEMFRDFDYIADWC [PIFtide, reference compound]”, at GST-PDK1 [Val127Thr], the AC50 was determined as 0.14 ± 0.07 µM, the Max. activity was 2.36 ± 0.15 U/mg and the “activation of PDK1 Val127Thr mutant” value is recorded as 260%. At GST-PDK1 [Ser135Ala], this molecule showed an AC50 of 0.18 ± 0.02 µM and a Max. activity of 3.4 ± 0.09 U/mg. For the same molecule, at PDK1 50-360, the activity was half-maximal at 0.17 ± 0.09 µM (AC50), the Max. activity amounted to 2.62 ± 0.18 U/mg and the “activation of PDK1 CD wt (in words)” value is recorded as “activated”.
